In brackets after ≈: the same amount, converted by molar mass.
What was measured:
[1] = tested on: Staphylococcus aureus FDA 209 P; test: Antimicrobial activity (MIC), broth culture; type: cell-based; settings: for MIC: FDA209, Staphylococcus aureus FDA 209 P, 37° C., 20 hours; for Antimicrobial activity: against Streptococcus aureus FDA 209P
Protocol: (§1) Two ml portions of M3 -Medium (Bactoantibiotic Medium--Difico, 1.75%, pH 7.2) were placed into test tubes and heated at 120° C. for 10 minutes. Each test strain in Table 1 was inoculated into a batch of culture medium, and the inoculated batches were cultured with shaking at 30° C. for 20 hours to obtain seed culture broths. A 0.05 ml sample of each culture broth was inoculated into 20 ml of M3 -Medium containing […] or (II). The inoculates were cultured at 37° C. for 20 hours with shaking. Thereafter, the optical density of each resultant culture broth at 660 nm was determined, and the minimum inhibition concentration (MIC) of each broth was calculated, and is shown in Table 1.

[2] = tested on: Bacillus subtilis ATCC 6633; test: Antimicrobial activity (MIC), broth culture; type: cell-based; settings: for MIC: ATCC6633, Bacillus subtilis ATCC 6633, 37° C., 20 hours; for Antimicrobial activity: against Bacillus subtilis ATCC 6633
Protocol: as §1

[3] = tested on: Sarcina lutia ATCC 93412; test: Antimicrobial activity (MIC), broth culture; type: cell-based; settings: for MIC: Sarcina, ATCC93412, 20 h; for Antimicrobial activity: against Sarchina lutea ATCC 9341
Protocol: as §1

[4] = tested on: Pseudomonas aeruginosa ATCC 10145; test: Antimicrobial activity (MIC), broth culture; type: cell-based; settings: ATCC10145, 37° C., 20 hours
Protocol: as §1

[5] = tested on: Escherichia coli K-12 ATCC 10798; test: Antimicrobial activity (MIC), broth culture; type: cell-based; settings: ATCC10798, 37° C., 20 hours
Protocol: as §1

[6] = tested on: Escherichia coli MP-2; test: Antimicrobial activity (MIC), broth culture; type: cell-based; settings: MP2, 37° C., 20 hours
Protocol: AN-201(I) and (II) can be assayed by determining anti-microbial activity to E. coli MP-2 (FERM-P 5432) (Agric. Biol. Chem., 43, 371, (1979)), which has permeability for high molecular compounds.
as §1

[7] = tested on: LEWIS lung carcinoma; test: Effect on LEWIS lung carcinoma in BDF1 mice; type: in vivo, mouse; settings: for Reduction of tumor size / I.L.S.: intraperitoneally daily for 1-10 days; for Antitumor activity: against LEWIS lung carcinoma in mouse; for I.L.S.: increase in life span; for Life prolongation effects compared with BLM: mouse suffered from LEWIS lung carcinoma
Protocol: LEWIS lung carcinoma (1 mm^3) was transplanted subcutaneously into BDF1 mice. After 24 hours of the transplantation, AN-201(I), (II) and BLM were intraperitoneally injected daily for 1-10 days. Antitumor activity was indicated with a reduction in tumor size or with a increase in life span.

[8] = ED50 on normal cells 3T3; type: cell-based; settings: mouse; normal 3T3 cells; 2 days; read-out: ED50 33T3(N)
Protocol: (§2) Normal cells, 3T3 and SV-40-transformed 3T3 cells, (SV3T3) were cultured in Eagle's minimal essential medium supplemented with 10% calf serum, 5 μg/ml of cefazoline and 100 μg/ml of streptomycin at the initial cell concentration of 4×10^4 cells/2 cm^2 for 3T3 and 2×10^4 cells/2 cm^2 for SV3T3 at 37° C. in 7% CO2 incubator. After one day of cultivation old medium was removed from tissue culture plate and various concentrations of drug diluted with new medium were added to the Falcon tissue culture plate. After 2 days of cultivation, the cell density was measured and the value of ED50 was determined. N/T ratio was calculated from ED50 value of normal cell, 3T3, to transformed cell, SV3T3.

[9] = tested on: mouse leukemia L 1210 cells; test: Effect on L 1210 cell (relative multiplication number); type: cell-based; settings: L1210, 120 h, 5 days, 0 μg/ml = 100; for activity at 10 µg/mL: 10 μg/ml; for activity at 20 µg/mL: 20 μg/ml; for activity at 40 µg/mL: 40 μg/ml; for activity at 50 µg/mL: 50 μg/ml; for activity at 60 µg/mL: 60 μg/ml
Protocol: A 10.28 g sample of RPMI 1640 powder medium (DAI-NIPPON SEIYAKU) was dissolved into 1.0 liter distilled water and 1.0 g NaHCO3 was added to it. Then the solution was filtered through a Millipore filter (pore size: 0.22μ) and supplemented with 100 ml of germ-free blood serum. One ml portions of the culture medium thus prepared were placed into Falcon Multi Well aseptically. Then a 0.05 ml culture sample of mouse leukemia L 1210 cells previously cultured was inoculated into each batch of the culture medium, and a definite amount of purified AN-201(I) or (II) dissolved in the same medium was added simultaneously to the culture medium. Thereafter, the inoculated media were incubated in a CO2 gas incubator (concentration of CO2 gas: 7.0%) at […]. After 5 days incubation, the numbers of multiplied cells were counted under a microscope and the relative multiplication numbers obtained are shown in Table 4.

[10] = tested on: SV3T3; test: ED50 on SV-40-transformed 3T3 cells and selective cytotoxic effect; type: cell-based, mouse; settings: for Cytotoxicity compared with BLM: 3T3 cell transformed with SV-40; for Selective cytotoxic effect (N/T ratio): ED50 of normal cell 3T3 to transformed cell SV3T3, 2880 min; for IC50: Mus musculus, SV3T3, 48 h, SV-40-transformed 3T3 cells, 2 days, read-out: ED50 SV3T3(T); for Antitumor activity (selective cytotoxicity): against 3T3 cell transformed with SV-40
Protocol: as §2

[11] = tested on: mouse fibroblast cell 3T3 transformed with Semian virus-40 (SV 3T3); test: Number of injured cells, SV 3T3 (transformed with Semian virus-40); type: cell-based; parameters: key: -: none of the cells injured; +: half of the cells injured; ++: about 2/3 of the cells injured; +++: almost all of the cells injured; settings: 3 days
Protocol: (§3) MEM Uldecco powder (DAI-NIPPON SEIYAKU) (13.45 g) was dissolved in 1 l of distilled water and 2 ml of 7.5% NaHCO3 solution was added to the solution. Then the solution was filtered through a Millipore filter (pore size: 0.22μ) and supplemented with 100 ml of germ-free blood serum. Into a micro test plate (Falcon), 0.15 ml portions of the culture medium thus prepared were placed. Then a 0.05 ml culture sample of previously cultured mouse fibroblast cell 3T3 or mouse fibroblast cell 3T3 transformed with Semian virus-40 (SV 3T3) was inoculated into each portion of the culture medium. Thereafter, the inoculated media were incubated in a CO2 gas incubator (concentration of CO2 gas: 7.0%) at 37° C. for 24 hours. Into the media AN-201(I) or (II) was added to contain 20 μg/ml, 40 μg/ml, 50 μg/ml or 60 μg/ml, and additional cultivation was carried out for 3 days. Number of injured cell in each medium was counted with an invert microscope using a Thama hematometer.

[12] = tested on: mouse fibroblast cell 3T3; test: Number of injured cells, mouse fibroblast 3T3; type: cell-based; parameters: key: -: none of the cells injured; +: half of the cells injured; ++: about 2/3 of the cells injured; +++: almost all of the cells injured; settings: 3 days
Protocol: as §3

[13] = tested on: LEWIS lung carcinoma; settings: reported for the known agent, cited from earlier work

| Molecule | MIC [1] | Antimicrobial activity [1] | MIC [2] | Antimicrobial activity [2] | MIC [3] | Antimicrobial activity [3] | MIC [4] | MIC [5] | MIC [6] | Reduction of tumor size ([7]; 9 mg/kg) | Antitumor activity [7] | I.L.S. ([7]; 9 mg/kg) | Life prolongation effects compared with BLM [7] | CC50 at 48 h [8] | activity at 10 µg/mL [9] | activity at 20 µg/mL [9] | activity at 40 µg/mL [9] | activity at 50 µg/mL [9] | activity at 60 µg/mL [9] | Cytotoxicity compared with BLM [10] | also measured |
| --- | --- | --- | --- | --- | --- | --- | --- | --- | --- | --- | --- | --- | --- | --- | --- | --- | --- | --- | --- | --- | --- |
| CC(=O)NC(CCCNC(=O)CC(N)CCCNC(=O)CC(N)CCCN)CC(=O)NC1C(N=C2NC3C(=O)NCC(O)C3N2)OC(CO)C(OC(N)=O)C1O (centres unmarked) [AN-201(II)] | 2 µg/mL (≈ 2.5 µM) | positive | 1.5 µg/mL (≈ 1.87 µM) | positive | 5 µg/mL (≈ 6.24 µM) | positive | > 50 µg/mL | > 50 µg/mL | 4 µg/mL (≈ 4.99 µM) | 74-85% | positive | 124-135% | greater life prolongation effects | 50 µg/mL (≈ 62.4 µM) | 100% | 80% | 25% | 0% | 0% | more strongly and selectively cytotoxic | Reduction of tumor size ([7]; 1 mg/kg): 50-57%; Reduction of tumor size ([7]; 3 mg/kg): 54-60%; I.L.S. ([7]; 1 mg/kg): 101-110%; I.L.S. ([7]; 3 mg/kg): 121-130%; Selective cytotoxic effect (N/T ratio) [10]: 3.3; IC50 [10]: 15 µg/mL (≈ 18.7 µM); Antitumor activity (selective cytotoxicity) [10]: cytotoxic selectively; Number of Injured Cell ([11]; 20 μg/ml): -; Number of Injured Cell ([11]; 40 μg/ml): +; Number of Injured Cell ([11]; 50 μg/ml): +++; Number of Injured Cell ([11]; 60 μg/ml): +++; Number of Injured Cell ([12]; 20 μg/ml): -; Number of Injured Cell ([12]; 40 μg/ml): -; Number of Injured Cell ([12]; 50 μg/ml): +; Number of Injured Cell ([12]; 60 μg/ml): ++ |
| bleomycin [BLM, reference compound] |  |  |  |  |  |  |  |  |  |  |  |  |  |  |  |  |  |  |  |  | Antitumor activity (reported) ([13]; LEWIS lung carcinoma in mouse): notable antitumor activity; Chemotherapeutic coefficient (reported) [13]: very high; Reduction of tumor size ([7]; 5 mg/kg): 52-60%; Reduction of tumor size ([7]; 10 mg/kg): 65-80%; I.L.S. ([7]; 5 mg/kg): 100-110%; I.L.S. ([7]; 10 mg/kg): 119-124% |
| CC(=O)NC(CCCNC(=O)CC(N)CCCN)CC(=O)NC1C(N=C2NC3C(=O)NCC(O)C3N2)OC(CO)C(OC(N)=O)C1O (centres unmarked) [AN-201(I)] | 2 µg/mL (≈ 2.97 µM) | positive | 2.7 µg/mL (≈ 4.01 µM) | positive | 5 µg/mL (≈ 7.43 µM) | positive | > 50 µg/mL | > 50 µg/mL | 20 µg/mL (≈ 29.7 µM) | 45-50% | positive | 114-120% | greater life prolongation effects | 55 µg/mL (≈ 81.8 µM) | 100% | 80% | 30% | 0% | 0% | more strongly and selectively cytotoxic | Reduction of tumor size ([7]; 18 mg/kg): 50-65%; I.L.S. ([7]; 18 mg/kg): 120-125%; Selective cytotoxic effect (N/T ratio) [10]: 2.2; IC50 [10]: 25 µg/mL (≈ 37.2 µM); Antitumor activity (selective cytotoxicity) [10]: cytotoxic selectively; Number of Injured Cell ([11]; 20 μg/ml): -; Number of Injured Cell ([11]; 40 μg/ml): +; Number of Injured Cell ([11]; 50 μg/ml): +++; Number of Injured Cell ([11]; 60 μg/ml): +++; Number of Injured Cell ([12]; 20 μg/ml): -; Number of Injured Cell ([12]; 40 μg/ml): -; Number of Injured Cell ([12]; 50 μg/ml): +; Number of Injured Cell ([12]; 60 μg/ml): ++ |

Reference: patent US4560748A, “Streptothricin-group compounds” (Ajinomoto Company Incorporated, priority 1982, dated 1985)
